Source: PubChem BioAssay (NCI)
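Compound exposure: 48 hours, 5 concentrations, 96-well plates. At the GI50, growth is halved. Definition used: TGI = concentration required for complete inhibition of growth.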

Key:
Assay in all cases: NCI tumour cell line growth inhibition, 48 h
SK-MEL-2 melanoma = test system: SK-MEL-2 melanoma
A498 renal = test system: A498 renal
NCI-H226 lung = test system: NCI-H226 lung
KM12 colon = test system: KM12 colon
CAKI-1 renal = test system: CAKI-1 renal
SF-268 CNS = test system: SF-268 CNS
TK-10 renal = test system: TK-10 renal
HCT-116 colon = test system: HCT-116 colon
SF-539 CNS = test system: SF-539 CNS
SR leukemia = test system: SR leukemia
HOP-62 NSCLC = test system: HOP-62 NSCLC
SNB-75 CNS = test system: SNB-75 CNS
MDA-MB-231 breast = test system: MDA-MB-231 breast
NCI-H23 lung = test system: NCI-H23 lung
RPMI-8226 leukemia = test system: RPMI-8226 leukemia
HOP-92 NSCLC = test system: HOP-92 NSCLC
U251 CNS = test system: U251 CNS
PC-3 prostate = test system: PC-3 prostate
EKVX NSCLC = test system: EKVX NSCLC
OVCAR-8 ovarian = test system: OVCAR-8 ovarian
UO-31 renal = test system: UO-31 renal
SN12C renal = test system: SN12C renal
HCC-2998 colon = test system: HCC-2998 colon
OVCAR-4 ovarian = test system: OVCAR-4 ovarian
RXF 393 renal = test system: RXF 393 renal
IGROV1 ovarian = test system: IGROV1 ovarian
BT-549 breast = test system: BT-549 breast
ACHN renal = test system: ACHN renal
SK-MEL-28 melanoma = test system: SK-MEL-28 melanoma
UACC-257 melanoma = test system: UACC-257 melanoma
SK-MEL-5 melanoma = test system: SK-MEL-5 melanoma
SW-620 colon = test system: SW-620 colon
786-0 renal = test system: 786-0 renal
M14 melanoma = test system: M14 melanoma
HCT-15 colon = test system: HCT-15 colon
MOLT-4 leukemia = test system: MOLT-4 leukemia
HT29 colon = test system: HT29 colon
A549 NSCLC = test system: A549 NSCLC
OVCAR-5 ovarian = test system: OVCAR-5 ovarian
NCI-H522 lung = test system: NCI-H522 lung
SF-295 CNS = test system: SF-295 CNS
CCRF-CEM leukemia = test system: CCRF-CEM leukemia
NCI/ADR-RES ovarian = test system: NCI/ADR-RES ovarian
NCI-H460 lung = test system: NCI-H460 lung
HL-60(TB) leukemia = test system: HL-60(TB) leukemia
HS 578T breast = test system: HS 578T breast
COLO 205 colon = test system: COLO 205 colon
UACC-62 melanoma = test system: UACC-62 melanoma
LOX IMVI melanoma = test system: LOX IMVI melanoma
OVCAR-3 ovarian = test system: OVCAR-3 ovarian
SK-OV-3 ovarian = test system: SK-OV-3 ovarian
T-47D breast = test system: T-47D breast
MALME-3M melanoma = test system: MALME-3M melanoma
MCF7 breast = test system: MCF7 breast
SNB-19 CNS = test system: SNB-19 CNS
DU-145 prostate = test system: DU-145 prostate
MDA-MB-435 = test system: MDA-MB-435
K-562 leukemia = test system: K-562 leukemia

## COc1ccccc1/C=C/C=N/NC1=NC2C(S1)N(C)C(=O)N2C (stereo not drawn)
SK-MEL-2 melanoma
  GI50: 3.02 µM
  TGI: 15.1 µM
A498 renal
  GI50: 11.1 µM
  TGI: 94.6 µM
NCI-H226 lung
  GI50: 3.53 µM
  TGI: 90.2 µM
KM12 colon
  GI50: 3.92 µM
  TGI: 17.7 µM
CAKI-1 renal
  GI50: 4.11 µM
  TGI: > 100 µM
SF-268 CNS
  GI50: 6.78 µM
  TGI: 38.5 µM
TK-10 renal
  GI50: 14.3 µM
  TGI: 72.5 µM
HCT-116 colon
  GI50: 4.36 µM
  TGI: 90.8 µM
SF-539 CNS
  GI50: 2.59 µM
  TGI: 8.6 µM
SR leukemia
  GI50: 2.74 µM
  TGI: 30.4 µM
HOP-62 NSCLC
  GI50: 7.76 µM
  TGI: > 100 µM
SNB-75 CNS
  GI50: 2.82 µM
  TGI: 49.3 µM
MDA-MB-231 breast
  GI50: 9.27 µM
  TGI: 75.8 µM
NCI-H23 lung
  GI50: 7.62 µM
  TGI: > 100 µM
RPMI-8226 leukemia
  GI50: 4.8 µM
  TGI: > 100 µM
HOP-92 NSCLC
  GI50: 3.39 µM
  TGI: 32.3 µM
U251 CNS
  GI50: 5.02 µM
  TGI: > 100 µM
PC-3 prostate
  GI50: 5.28 µM
  TGI: > 100 µM
EKVX NSCLC
  GI50: 9.85 µM
  TGI: > 100 µM
OVCAR-8 ovarian
  GI50: 5.47 µM
  TGI: 51.9 µM
UO-31 renal
  GI50: 4.03 µM
  TGI: 43.6 µM
SN12C renal
  GI50: 4.4 µM
  TGI: 30.7 µM
HCC-2998 colon
  GI50: 10.5 µM
  TGI: 33.2 µM
OVCAR-4 ovarian
  GI50: 9.21 µM
  TGI: > 100 µM
RXF 393 renal
  GI50: 2.43 µM
  TGI: 17 µM
IGROV1 ovarian
  GI50: 8.3 µM
  TGI: > 100 µM
BT-549 breast
  GI50: 2.94 µM
  TGI: 12.9 µM
ACHN renal
  GI50: 5.67 µM
  TGI: 93.9 µM
SK-MEL-28 melanoma
  GI50: 8.86 µM
  TGI: > 100 µM
UACC-257 melanoma
  GI50: 8.11 µM
  TGI: > 100 µM
SK-MEL-5 melanoma
  GI50: 3.61 µM
  TGI: 13.8 µM
SW-620 colon
  GI50: 4.07 µM
  TGI: > 100 µM
786-0 renal
  GI50: 5.77 µM
  TGI: 70.3 µM
M14 melanoma
  GI50: 3.9 µM
  TGI: 43 µM
HCT-15 colon
  GI50: 3.96 µM
  TGI: > 100 µM
MOLT-4 leukemia
  GI50: 4.54 µM
  TGI: > 100 µM
HT29 colon
  GI50: 3.33 µM
  TGI: 13.2 µM
A549 NSCLC
  GI50: 7.31 µM
  TGI: > 100 µM
OVCAR-5 ovarian
  GI50: 5.55 µM
  TGI: > 100 µM
NCI-H522 lung
  GI50: 1.68 µM
  TGI: 4.54 µM
SF-295 CNS
  GI50: 3.68 µM
  TGI: 38.2 µM
CCRF-CEM leukemia
  GI50: 4.42 µM
  TGI: > 100 µM
NCI/ADR-RES ovarian
  GI50: 4.19 µM
  TGI: > 100 µM
NCI-H460 lung
  GI50: 3.95 µM
  TGI: > 100 µM
HL-60(TB) leukemia
  GI50: 0.545 µM
  TGI: 4.37 µM
HS 578T breast
  GI50: 3.82 µM
  TGI: > 100 µM
COLO 205 colon
  GI50: 4.8 µM
  TGI: 20.3 µM
UACC-62 melanoma
  GI50: 2.99 µM
  TGI: 34.1 µM
LOX IMVI melanoma
  GI50: 4.94 µM
  TGI: 21.2 µM
OVCAR-3 ovarian
  GI50: 2.5 µM
  TGI: 6.6 µM
SK-OV-3 ovarian
  GI50: 6.93 µM
  TGI: 66.4 µM
T-47D breast
  GI50: 5.6 µM
  TGI: > 100 µM
MALME-3M melanoma
  GI50: 4.73 µM
  TGI: 77.7 µM
MCF7 breast
  GI50: 2.91 µM
  TGI: > 100 µM
SNB-19 CNS
  GI50: 6.28 µM
  TGI: > 100 µM
DU-145 prostate
  GI50: 5.74 µM
  TGI: > 100 µM

## CN(C)c1ccc(-c2c(NC(C)(C)C)nc3c(OCCc4ccccc4)cccn23)cc1
SK-MEL-2 melanoma
  GI50: 2.31 µM
  TGI: 4.99 µM
A498 renal
  GI50: 2.52 µM
  TGI: 7.83 µM
NCI-H226 lung
  GI50: 2.72 µM
  TGI: 8.86 µM
KM12 colon
  GI50: 3.3 µM
  TGI: 16.1 µM
CAKI-1 renal
  GI50: 2.95 µM
  TGI: 10.5 µM
SF-268 CNS
  GI50: 3.53 µM
  TGI: > 100 µM
TK-10 renal
  GI50: 2.34 µM
  TGI: 6.8 µM
HCT-116 colon
  GI50: 3.23 µM
  TGI: 20.8 µM
SF-539 CNS
  GI50: 4.16 µM
  TGI: 19.2 µM
SR leukemia
  GI50: 3.04 µM
  TGI: 18.7 µM
HOP-62 NSCLC
  GI50: 3.4 µM
  TGI: 16.9 µM
SNB-75 CNS
  GI50: 1.79 µM
  TGI: 8.55 µM
MDA-MB-231 breast
  GI50: 2.71 µM
  TGI: 7.87 µM
NCI-H23 lung
  GI50: 2.91 µM
  TGI: 10.9 µM
RPMI-8226 leukemia
  GI50: 2.53 µM
  TGI: 6.74 µM
HOP-92 NSCLC
  GI50: 2.09 µM
  TGI: 6.15 µM
U251 CNS
  GI50: 3.24 µM
  TGI: 11.4 µM
PC-3 prostate
  GI50: 3.09 µM
  TGI: > 100 µM
EKVX NSCLC
  GI50: 2.89 µM
  TGI: 9.64 µM
OVCAR-8 ovarian
  GI50: 3.04 µM
  TGI: > 100 µM
UO-31 renal
  GI50: 2.01 µM
  TGI: 7.22 µM
SN12C renal
  GI50: 2.93 µM
  TGI: > 100 µM
HCC-2998 colon
  GI50: 3.55 µM
  TGI: > 100 µM
OVCAR-4 ovarian
  GI50: 3.06 µM
  TGI: 12.8 µM
RXF 393 renal
  GI50: 1.94 µM
  TGI: 5.66 µM
IGROV1 ovarian
  GI50: 4.3 µM
  TGI: > 100 µM
BT-549 breast
  GI50: 2.98 µM
  TGI: 8.45 µM
ACHN renal
  GI50: 3.24 µM
  TGI: > 100 µM
SK-MEL-28 melanoma
  GI50: 3.85 µM
  TGI: > 100 µM
UACC-257 melanoma
  GI50: 2.78 µM
  TGI: 8.19 µM
SK-MEL-5 melanoma
  GI50: 1.83 µM
  TGI: 3.37 µM
SW-620 colon
  GI50: 2.94 µM
  TGI: 22.1 µM
786-0 renal
  GI50: 3.57 µM
  TGI: 15.5 µM
M14 melanoma
  GI50: 3.48 µM
  TGI: 75.6 µM
HCT-15 colon
  GI50: 3.3 µM
  TGI: 24 µM
MOLT-4 leukemia
  GI50: 3.46 µM
  TGI: 14 µM
HT29 colon
  GI50: 2 µM
  TGI: 5.67 µM
A549 NSCLC
  GI50: 3.58 µM
  TGI: > 100 µM
OVCAR-5 ovarian
  GI50: 3.22 µM
  TGI: > 100 µM
MDA-MB-435
  GI50: 3.16 µM
  TGI: 18.1 µM
NCI-H522 lung
  GI50: 2.59 µM
  TGI: 6.65 µM
SF-295 CNS
  GI50: 2.84 µM
  TGI: 8.7 µM
CCRF-CEM leukemia
  GI50: 3.29 µM
  TGI: > 100 µM
NCI/ADR-RES ovarian
  GI50: 3.09 µM
  TGI: > 100 µM
NCI-H460 lung
  GI50: 2.99 µM
  TGI: 9.66 µM
HL-60(TB) leukemia
  GI50: 3.13 µM
  TGI: 8.38 µM
HS 578T breast
  GI50: 2.62 µM
  TGI: 9.02 µM
COLO 205 colon
  GI50: 2.2 µM
  TGI: 5.24 µM
UACC-62 melanoma
  GI50: 3.53 µM
  TGI: 52.1 µM
LOX IMVI melanoma
  GI50: 3 µM
  TGI: 20.7 µM
OVCAR-3 ovarian
  GI50: 3.04 µM
  TGI: 12.9 µM
SK-OV-3 ovarian
  GI50: 3.08 µM
  TGI: 35.8 µM
T-47D breast
  GI50: 3.43 µM
  TGI: > 100 µM
MALME-3M melanoma
  GI50: 2.3 µM
  TGI: 5.95 µM
K-562 leukemia
  GI50: 3.33 µM
  TGI: 39.3 µM
MCF7 breast
  GI50: 2.87 µM
  TGI: 9.82 µM
SNB-19 CNS
  GI50: 3.43 µM
  TGI: 15.6 µM
DU-145 prostate
  GI50: 4.16 µM
  TGI: > 100 µM
